Experimental data: ChEMBL document CHEMBL5113390, “Design, synthesis and antitumor evaluation of novel 1H-indole-2-carboxylic acid derivatives targeting 14-3-3η protein” (Eur J Med Chem, 2022)

Experiments:
Bel-7402 = test: Antiproliferative activity against human Bel-7402 cells assessed as reduction in cell viability incubated for 72 hrs by MTT assay; assay type: functional, cell-based; conditions: Bel-7402, 72 h
SMMC-7721 = test: Antiproliferative activity against human SMMC-7721 cells assessed as reduction in cell viability incubated for 72 hrs by MTT assay; assay type: functional, cell-based; conditions: SMMC-7721, 72 h
Hep 3B2 = test: Antiproliferative activity against human Hep3B cells assessed as reduction in cell viability incubated for 72 hrs by MTT assay; assay type: functional, cell-based
Bel7402/5-FU = test: Antiproliferative activity against human BEL-7402/5-FU cells overexpressing 14-3-3 eta assessed as reduction in cell viability incubated for 72 hrs by MTT assay; assay type: functional, cell-based
SNU-387 = test: Antiproliferative activity against human SNU-387 cells assessed as reduction in cell viability incubated for 72 hrs by MTT assay; assay type: functional, cell-based; conditions: SNU-387, 72 h
HepG2 = test: Antiproliferative activity against human HepG2 cells assessed as reduction in cell viability incubated for 72 hrs by MTT assay; assay type: functional, cell-based; conditions: HepG2, 72 h
14-3-3 protein eta = target: T1, 14-3-3 protein eta (Homo sapiens, UniProt Q04917); test: Binding affinity to 14-3-3 eta (unknown origin) assessed as dissociation constant by biolayer interferometry assay
T1 sequence (Q04917 whole entry): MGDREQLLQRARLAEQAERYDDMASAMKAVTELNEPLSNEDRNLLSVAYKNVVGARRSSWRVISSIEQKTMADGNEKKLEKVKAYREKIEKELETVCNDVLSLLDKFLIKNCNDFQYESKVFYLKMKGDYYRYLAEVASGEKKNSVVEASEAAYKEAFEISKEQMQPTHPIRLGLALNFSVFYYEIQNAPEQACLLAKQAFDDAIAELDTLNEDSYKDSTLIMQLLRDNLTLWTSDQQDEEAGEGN

IC50 (Bel-7402) | IC50 (SMMC-7721) | IC50 (Bel7402/5-FU) | IC50 (SNU-387) | IC50 (HepG2) | Kd (14-3-3 protein eta) | SMILES | IC50 (Hep 3B2)
> 50 µM |  |  |  |  |  | COc1ccc(Cn2c(C(=O)O)c(CNCc3cccc(OC)c3)c3ccc(C(F)F)cc32)cc1 | 
9.57 µM | 11.3 µM | > 50 µM | 9.01 µM | 7.4 µM |  | COc1cccc(CNCc2c(C(=O)O)n(Cc3ccc(N)cc3)c3cc(C(C)C)ccc23)c1 | 11.2 µM
58.9 µM |  |  |  |  |  | CCNC(=O)c1c(CNCc2ccc(OC)cc2)c2ccccc2n1Cc1ccc(OC)cc1 | 
> 50 µM |  |  |  |  |  | COc1cccc(CNCc2c(C(=O)O)n(Cc3ccccc3F)c3ccccc23)c1 | 
9.27 µM | 5.03 µM | 15.2 µM | 6.86 µM | 4.92 µM | 22 µM | COc1ccc(Cn2c(C(=O)O)c(CNCc3cccc(O)c3)c3ccc(C(C)C)cc32)cc1 | 6.6 µM
8.38 µM | 5.83 µM | 7.9 µM | 5.4 µM | 3.66 µM |  | COc1ccc(Cn2c(C(=O)O)c(CNCc3ccc(O)c(OC)c3)c3ccc(C(C)C)cc32)cc1 | 4.71 µM
5.9 µM | 3.53 µM | 5.92 µM | 5.09 µM | 3.18 µM | 55 µM | COc1cccc(CNCc2c(C(=O)O)n(Cc3ccccc3)c3cc(C(C)C)ccc23)c1 | 4.11 µM
> 50 µM |  |  |  |  | 140 µM | COc1ccc(Cn2c(C(=O)O)c(CNCc3ccc(O)c(OC)c3)c3ccccc32)cc1 | 
> 50 µM |  |  |  |  |  | COc1ccc(Cn2c(C(=O)O)c(CNCc3cc(OC)ccc3O)c3ccc(C)cc32)cc1 | 
> 50 µM |  |  |  |  |  | COc1cccc(CNCc2c(C(=O)O)n(Cc3ccc(O)cc3)c3ccccc23)c1 | 
> 50 µM |  |  |  |  |  | COc1cccc(CNCc2c(C(=O)O)n(Cc3ccc(O)cc3)c3cc(C)ccc23)c1 | 
13.3 µM | 7.73 µM | > 50 µM | 6.15 µM | 3.74 µM | > 200 µM | COc1ccc(Cn2c(C(=O)O)c(CNCc3ccc(O)c(OC)c3)c3ccc(C)cc32)cc1 | 8.2 µM
> 50 µM |  |  |  |  | > 200 µM | COc1cccc(CNCc2c(C(=O)O)n(Cc3ccccc3F)c3cc(C)ccc23)c1 | 
> 50 µM |  |  |  |  |  | COc1ccc(Cn2c(C(=O)O)c(CNCc3cccc(O)c3)c3ccccc32)cc1 | 
> 50 µM |  |  |  |  | 56 µM | COc1ccc(Cn2c(C(=O)O)c(CNC(=O)c3cccc(OC)c3)c3ccc(C)cc32)cc1 | 
19.8 µM | 34.8 µM | > 50 µM | 9.91 µM | 4.52 µM |  | COc1ccc(Cn2c(C(=O)O)c(CNCc3cccc(O)c3)c3ccc(C)cc32)cc1 | 11.8 µM
> 50 µM |  |  |  |  |  | COc1cccc(CNCc2c(C(=O)O)n(Cc3ccccc3)c3ccccc23)c1 | 
33 µM | 11 µM | 7.47 µM | 20.1 µM | 15.4 µM | > 200 µM | COc1ccc(Cn2c(C(=O)O)c(CN(C)Cc3cccc(OC)c3)c3ccc(C)cc32)cc1 | 14.5 µM
5.59 µM | 3.23 µM | 5.21 µM | 6.09 µM | 3.3 µM | 37 µM | COc1cccc(CNCc2c(C(=O)O)n(Cc3ccccc3F)c3cc(C(C)C)ccc23)c1 | 5.19 µM
> 50 µM |  |  |  |  | 160 µM | COc1cccc(CNCc2c(C(=O)O)n(Cc3ccc(F)cc3)c3ccccc23)c1 | 
6.03 µM | 4.88 µM | 13.3 µM | 12.3 µM | 3.3 µM |  | CNC(=O)c1cc(Oc2ccc(NC(=O)Nc3ccc(Cl)c(C(F)(F)F)c3)cc2)ccn1 [SORAFENIB] | 5.49 µM
5.67 µM | 3.44 µM | 7.31 µM | 5.29 µM | 5.05 µM |  | COc1cccc(CNCc2c(C(=O)O)n(Cc3ccc(C)cc3)c3cc(C)ccc23)c1 | 6.33 µM
7.08 µM | 3.73 µM | > 50 µM | 5.13 µM | 1.63 µM | 74 µM | COc1cccc(CNCc2c(C(=O)O)n(Cc3ccc(O)cc3)c3cc(C(C)C)ccc23)c1 | 5.34 µM
> 50 µM |  |  |  |  |  | COc1ccc(Cn2c(C(=O)O)c(CNCc3cccc(OC)c3)c3ccc(C(F)(F)F)cc32)cc1 | 
21.5 µM | 6.27 µM | 9.33 µM | 14.3 µM | 14 µM |  | COc1cccc(CNCc2c(C(=O)O)n(Cc3ccc(C)cc3)c3ccccc23)c1 | 14.5 µM
12.5 µM | 4.72 µM | 12.1 µM | 8.17 µM | 5.21 µM |  | COc1cccc(CNCc2c(C(=O)O)n(Cc3ccccc3)c3cc(C)ccc23)c1 | 7.31 µM
9.83 µM |  |  |  |  |  | COc1ccc(Cn2c(C(=O)O)c(CNCc3cccc(OC)c3)c3ccc(C)cc32)cc1 | 
52.9 µM |  |  |  |  |  | COc1ccc(Cn2c(C(=O)O)c(CNCc3cccc(OC)c3)c3ccccc32)cc1 | 

SMILES | IC50 (Bel-7402) | IC50 (SMMC-7721) | IC50 (Bel7402/5-FU) | IC50 (SNU-387) | IC50 (HepG2) | Kd (14-3-3 protein eta) | IC50 (Hep 3B2)
O=[As][As+](=O)[O-] (centres undefined) [ARSENIC TRIOXIDE] |  |  |  |  |  | 110 µM | 
